The text below walks through data of patent US20090062294A1, “HETEROARYL-SUBSTITUTED UREA MODULATORS OF FATTY ACID AMIDE HYDROLASE” (priority 2007, published 2009).

One assay deals with spasticity. Conditions: model of multiple sclerosis; cited from earlier work.
Another assay relates to neuropathic pain. Conditions: rats; cited from earlier work.
Assay [1] has as its system acute thermal nociception. As to conditions: rats; cited from earlier work.
In the next assay the target is T1, rat FAAH (Rattus norvegicus, UniProt P97612).
T1 sequence (P97612 1-579): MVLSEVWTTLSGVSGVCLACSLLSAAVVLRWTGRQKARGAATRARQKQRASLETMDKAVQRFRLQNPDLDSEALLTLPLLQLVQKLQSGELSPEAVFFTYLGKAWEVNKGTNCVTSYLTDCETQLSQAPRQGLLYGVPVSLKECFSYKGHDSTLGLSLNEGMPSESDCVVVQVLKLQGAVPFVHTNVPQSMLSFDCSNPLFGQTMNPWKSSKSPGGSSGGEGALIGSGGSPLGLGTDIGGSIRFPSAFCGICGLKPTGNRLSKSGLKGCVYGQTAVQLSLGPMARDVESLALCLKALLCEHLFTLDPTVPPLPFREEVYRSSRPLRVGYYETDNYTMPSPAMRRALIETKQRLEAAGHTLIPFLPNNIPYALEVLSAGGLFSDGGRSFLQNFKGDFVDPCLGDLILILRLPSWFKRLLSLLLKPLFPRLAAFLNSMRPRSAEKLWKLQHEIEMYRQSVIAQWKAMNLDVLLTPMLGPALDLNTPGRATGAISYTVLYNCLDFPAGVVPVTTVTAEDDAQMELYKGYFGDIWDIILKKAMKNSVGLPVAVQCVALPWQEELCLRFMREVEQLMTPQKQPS
Kind of assay: Assay Method 2: FAAH assay, 3H-anandamide hydrolysis in homogenate of SK-N-MC cells transfected with rat FAAH. As to conditions: average of results, > = solubility limit or highest concentration tested. The format is biochemical. The essentials:
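Homogenate of SK-N-MC cells stably transfected with rat FAAH cDNA (G418-selected clones) in pH 9 Tris/EDTA/glycerol/Triton buffer. Incubated with compound and 80 nM final [3H]-anandamide for 1 h at rt. Released [3H]-ethanolamine separated from substrate on activated charcoal filters and counted by scintillation.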

The subject of assay [2] is mechanical (tactile) allodynia in the left hind paw. Kind of assay: Assay Method 3: Rat Mild Thermal Injury Model (MTI), mechanical allodynia. The format is in vivo, Sprague-Dawley rats. As to conditions: 20 mg/Kg p.o.; 0.5 h after administration; mean +/- S.E.M. The text has this:
Assay Method 3—Rat Mild Thermal Injury Model (MTI)
Pathogen-free, male albino Sprague-Dawley rats were purchased from Harlan Industries (San Diego, Calif.) and maintained on a 12-h light/dark cycle (lights on at 9:00 AM and off at 9:00 PM) in a climate-controlled room. Food and water were available ad libitum up to the time of the testing.
Under isoflurane/oxygen anesthesia, a first-degree burn injury (erythema without blistering) was produced as follows: the plantar surface of the rat's left hind paw was placed on water-dampened 56° C. hotplate for 20 seconds and steady contact was maintained by applying an 84 g weight to the dorsum (after Nozaki-Taguchi & Yaksh, Neurosci. Lett. 1998, 254, 25-28).
Mild thermal injury results in mechanical allodynia in the left hind paw. Mechanical (tactile) allodynia was assessed by determining the median threshold at which the affected paw was withdrawn from graded stimuli (von Frey filaments ranging from 0.41 to 15.8 g) applied perpendicularly with sufficient force to bend slightly and held for 2-3 seconds against the proximal half of the third and fourth toe surfaces through wire-mesh observation cages. Paw flinching during or immediately following the removal of the stimulus was considered a positive response. A paw withdrawal threshold (PWT) was determined by sequentially increasing and decreasing the stimulus strength and analyzing withdrawal data using an adaptation of the Dixon up-down method, as described (Chaplan et al., J. Neurosci. 1994, 53, 55-63). Rats were included in the study only if their baseline PWT was 3.1623 g or lower (4.5 logarithmically).
Rats were tested for pre-injury thresholds prior to mild thermal injury and again for baseline thresholds after development of mechanical allodynia. Immediately after baseline measurement, test compound or vehicle was administered orally and the measurement was repeated at 0.5 h after administration. The tactile thresholds (log value) were converted to percent of a maximum possible effect ( %MPE): % MPE=[Threshold(t)−Threshold(baseline)]*100/[Threshold(pre)−Threshold(baseline)], where t=post-treatment time. Data were expressed as mean±standard error of the mean (S.E.M.). Statistical analysis was performed using two-way ANOVA with repeated measures with a significance level of p<0.05.
Results for compounds tested in this assay are presented in Table 2, as an average of results obtained. Compounds were tested in free base, hydrochloride salt, and/or trifluoroacetic acid salt forms.

The test system of assay [3] is thermal nociception. Conditions: rats; cited from earlier work.
For a further assay, the target named is T2, FAAH (Homo sapiens, UniProt O00519).
T2 sequence (O00519 1-579): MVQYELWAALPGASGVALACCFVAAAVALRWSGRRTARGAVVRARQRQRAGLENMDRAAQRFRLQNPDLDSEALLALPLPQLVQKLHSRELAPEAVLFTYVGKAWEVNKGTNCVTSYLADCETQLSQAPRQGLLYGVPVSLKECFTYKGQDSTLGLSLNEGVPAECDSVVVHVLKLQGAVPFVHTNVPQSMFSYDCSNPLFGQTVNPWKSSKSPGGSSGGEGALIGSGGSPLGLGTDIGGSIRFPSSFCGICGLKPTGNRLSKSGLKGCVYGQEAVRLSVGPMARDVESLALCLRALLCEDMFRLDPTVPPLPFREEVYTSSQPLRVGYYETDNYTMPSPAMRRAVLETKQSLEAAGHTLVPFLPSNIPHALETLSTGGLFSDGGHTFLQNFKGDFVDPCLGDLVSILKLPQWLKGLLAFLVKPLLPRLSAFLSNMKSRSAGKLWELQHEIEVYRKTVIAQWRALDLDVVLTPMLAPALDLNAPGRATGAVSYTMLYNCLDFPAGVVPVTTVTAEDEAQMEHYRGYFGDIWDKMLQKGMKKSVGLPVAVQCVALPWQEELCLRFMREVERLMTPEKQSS
As to conditions: cited from earlier work.

Assay [4] concerns thermal nociception. As to conditions: rats; cited from earlier work. This is another data set of the same source.
Another assay concerns pain. As to conditions: rat; cited from earlier work.
Another assay relates to anxiety. Conditions: rats; cited from earlier work.

One may read the IC50 as the concentration needed to halve the response being measured.

`CCCCCCCCCCCCCCCCS(=O)(=O)F` [AM374]: the “spasticity in CREAE mice” value in the assay with spasticity is on record as “significantly reduce spasticity”.
On to `Cc1nc(-c2ccccc2)c(-c2ccccc2)n1CCCCCCNC(=O)Oc1ccccc1F` [BMS-1], for which the “analgesic effect in Chung spinal nerve ligation model” value with neuropathic pain is “analgesic effect”. Besides, the “analgesic effect in Hargraves test” value in assay [1] is listed as “analgesic effect”.
In the case of `O=C(Nc1cccnn1)N1CCN(Cc2cccc(Oc3ccc(Cl)cc3)c2)CC1` [Example 246, 4-[3-(4-Chloro-phenoxy)-benzyl]-piperazine-1-carboxylic acid pyridazin-3-ylamide], inhibition against rat FAAH was half-maximal at 199 nM (IC50). In assay [2], the “% MPE” value is recorded as 32 +/− 3%.
Consider `O=C(CCCCCCc1ccccc1)c1ncc(-c2ccccn2)o1` [OL-135], for which, in the assay on thermal nociception [3], the “analgesic activity in tail emersion test” value is reported as “analgesic activity”. Further, the “inhibition of FAAH” value at FAAH is reported as “potent inhibitor”. Moreover, the “analgesic efficacy/activity in hot plate test” value with thermal nociception [4] is given as “analgesic activity”.
Take `NC(=O)c1cccc(-c2cccc(OC(=O)NC3CCCCC3)c2)c1` [URB-597]: the “analgesic efficacy in formalin test” value in the assay on pain is recorded as “analgesic efficacy”. Also, in the assay with anxiety, the “efficacy in zero plus maze model of anxiety” value was “efficacy”. The “analgesic efficacy/activity in hot plate test” value with thermal nociception [4] is reported as “analgesic efficacy”.
